Assay results as given in the supplement of paper PMC10307832.

How the values were obtained:
Experiment in all cases: relative viability (nuclei count vs DMSO), 5 days (fraction); higher = more cells survive
Idelalisib + Trametinib = compound: CC[C@H](Nc1ncnc2[nH]cnc12)c1nc2cccc(F)c2c(=O)n1-c1ccccc1 [Idelalisib] + CC(=O)Nc1cccc(-n2c(=O)n(C3CC3)c(=O)c3c(Nc4ccc(I)cc4F)n(C)c(=O)c(C)c32)c1 [Trametinib] (partner 0.02 µM)
Outline: (§1)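 A single step with final 0.05% Triton X-100, 1% formaldehyde and 1 ug/ml Hoechst fixed the cells and stained nuclei 5 days after treatment. Lung cancer cell lines in 1536-well plates had been treated by pin tool the day after seeding with one drug alone or a fixed anchor-drug dose plus five library-drug doses (not always all listed) in √10 steps, and nuclei were counted on 4× images. Relative viability is the ratio of nuclei in treated wells to nuclei in vehicle wells, taken as the median of duplicate plates.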

Pemetrexed + Linsitinib = compound: Nc1nc2[nH]cc(CCc3ccc(C(=O)N[C@@H](CCC(=O)O)C(=O)O)cc3)c2c(=O)[nH]1 [Pemetrexed] + C[C@]1(O)C[C@@H](c2nc(-c3ccc4ccc(-c5ccccc5)nc4c3)c3c(N)nccn32)C1 [Linsitinib] (partner 1 µM)
Outline: as §1

Idelalisib + Phenformin = compound: CC[C@H](Nc1ncnc2[nH]cnc12)c1nc2cccc(F)c2c(=O)n1-c1ccccc1 [Idelalisib] + N=C(N)NC(=N)NCCc1ccccc1 [Phenformin] (partner 250 µM)
Outline: as §1

Idelalisib + Decitabine = compound: CC[C@H](Nc1ncnc2[nH]cnc12)c1nc2cccc(F)c2c(=O)n1-c1ccccc1 [Idelalisib] + Nc1ncn([C@H]2C[C@H](O)[C@@H](CO)O2)c(=O)n1 [Decitabine] (partner 2 µM)
Outline: as §1

| Cell Line | relative viability (Idelalisib + Trametinib; first compound 0.04 µM) | relative viability (Idelalisib + Trametinib; first compound 0.1265 µM) | relative viability (Idelalisib + Trametinib; first compound 0.4 µM) | relative viability (Idelalisib + Trametinib; first compound 1.265 µM) | relative viability (Idelalisib + Trametinib; first compound 4 µM) | relative viability (Pemetrexed + Linsitinib; first compound 0.002 µM) | relative viability (Pemetrexed + Linsitinib; first compound 0.006325 µM) | relative viability (Pemetrexed + Linsitinib; first compound 0.02 µM) | relative viability (Pemetrexed + Linsitinib; first compound 0.06325 µM) | relative viability (Pemetrexed + Linsitinib; first compound 0.2 µM) | relative viability (Idelalisib + Phenformin; first compound 0.04 µM) | relative viability (Idelalisib + Phenformin; first compound 0.1265 µM) | relative viability (Idelalisib + Phenformin; first compound 0.4 µM) | relative viability (Idelalisib + Phenformin; first compound 1.265 µM) | relative viability (Idelalisib + Phenformin; first compound 4 µM) | relative viability (Idelalisib + Decitabine; first compound 0.04 µM) | relative viability (Idelalisib + Decitabine; first compound 0.1265 µM) | relative viability (Idelalisib + Decitabine; first compound 0.4 µM) | relative viability (Idelalisib + Decitabine; first compound 1.265 µM) | relative viability (Idelalisib + Decitabine; first compound 4 µM) |
| --- | --- | --- | --- | --- | --- | --- | --- | --- | --- | --- | --- | --- | --- | --- | --- | --- | --- | --- | --- | --- |
| NCI-H2023 | 0.487 | 0.533 | 0.49 | 0.537 | 0.37 | 0.738 | 0.537 | 0.693 | 0.55 | 0.304 | 0.407 | 0.391 | 0.363 | 0.361 | 0.351 | 0.25 | 0.236 | 0.241 | 0.197 | 0.208 |
| NCI-H2085 | 0.569 | 0.299 | 0.382 | 0.369 | 0.327 | 0.872 | 0.828 | 0.881 | 0.942 | 0.97 | 0.788 | 0.833 | 0.558 | 0.735 | 0.471 | 0.528 | 0.57 | 0.622 | 0.596 | 0.61 |
| NCI-H2087 | 0.206 | 0.23 | 0.204 | 0.205 | 0.156 | 0.886 | 0.889 | 1.02 | 0.767 | 0.635 | 0.515 | 0.494 | 0.36 | 0.5 | 0.326 | 0.357 | 0.337 | 0.217 | 0.244 | 0.269 |
| NCI-H2126 | 0.602 | 0.602 | 0.542 | 0.575 | 0.485 | 0.696 | 0.686 | 0.718 | 0.692 | 0.729 | 0.575 | 0.57 | 0.441 | 0.528 | 0.527 | 0.545 | 0.56 | 0.532 | 0.548 | 0.524 |
| NCI-H2347 | 0.267 | 0.282 | 0.246 | 0.278 | 0.229 | 0.874 | 0.932 | 0.938 | 0.716 | 0.521 | 0.395 | 0.386 | 0.372 | 0.284 | 0.313 | 0.612 | 0.589 | 0.752 | 0.621 | 0.512 |
| NCI-H2405 | 0.672 | 0.656 | 0.423 | 0.622 | 0.515 | 1.01 | 0.913 | 1.03 | 0.894 | 0.975 | 0.451 | 0.37 | 0.322 | 0.355 | 0.35 | 0.751 | 0.752 | 0.644 | 0.838 | 0.691 |
| NCI-H3122 | 0.224 | 0.223 | 0.188 | 0.235 | 0.225 | 1.01 | 1 | 0.949 | 1.01 | 0.646 | 0.389 | 0.371 | 0.403 | 0.41 | 0.388 | 0.461 | 0.418 | 0.358 | 0.444 | 0.369 |
| PC-3 [JPC-3] | 0.721 | 0.69 | 0.724 | 0.607 | 0.496 | 0.876 | 0.923 | 0.951 | 0.981 | 0.944 | 0.454 | 0.484 | 0.477 | 0.451 | 0.42 | 0.917 | 0.89 | 0.763 | 0.819 | 0.772 |
| PC-14 | 0.648 | 0.757 | 0.695 | 0.723 | 0.509 | 0.922 | 0.901 | 1.01 | 0.759 | 0.184 | 0.746 | 0.784 | 0.516 | 0.409 | 0.669 | 0.295 | 0.194 | 0.215 | 0.166 | 0.209 |
| RERF-LC-KJ | 0.84 | 0.912 | 0.804 | 0.936 | 0.66 | 0.856 | 0.845 | 0.926 | 0.912 | 0.752 | 0.442 | 0.438 | 0.419 | 0.44 | 0.373 | 0.757 | 0.739 | 0.692 | 0.573 | 0.521 |
| SK-LU-1 | 0.422 | 0.467 | 0.394 | 0.492 | 0.414 | 1.01 | 1.03 | 1.15 | 0.951 | 0.968 | 0.601 | 0.57 | 0.433 | 0.55 | 0.468 | 0.645 | 0.605 | 0.581 | 0.706 | 0.618 |
| SK-MES-1 | 0.497 | 0.482 | 0.426 | 0.477 | 0.353 | 1.01 | 1.02 | 1.07 | 0.984 | 0.955 | 0.704 | 0.675 | 0.663 | 0.686 | 0.674 | 0.399 | 0.414 | 0.36 | 0.248 | 0.257 |
| SW 1573 | 0.688 | 0.468 | 0.477 | 0.506 | 0.383 | 0.794 | 0.761 | 0.7 | 0.752 | 0.837 | 0.383 | 0.37 | 0.336 | 0.36 | 0.336 | 0.462 | 0.6 | 0.537 | 0.261 | 0.38 |
